In ChEMBL document CHEMBL1145755, “Design, synthesis and biological activity of novel dimethyl-[2-[6-substituted-indol-1-yl]-ethyl]-amine as potent, selective, and orally-bioavailable 5-HT(1D) agonists” (Bioorg Med Chem Lett, 2003):

Experiments:
[1] = target: T1, 5-hydroxytryptamine receptor 1D (Homo sapiens, UniProt P28221); test: Displacement of [3H]5-HT from human 5-hydroxytryptamine 1D receptor expressed in Chinese hamster ovary cells (CHO cells); format: cell-based
[2] = target: T1, 5-hydroxytryptamine receptor 1D; test: Inhibition of [3H]5-HT binding to human 5-hydroxytryptamine 1D receptor expressed in CHO cells at 1 uM; format: cell-based
[3] = target: T1, 5-hydroxytryptamine receptor 1D; test: Selectivity of compound to human 5-HT1D receptor to that of human 5-HT1B receptor
Homo sapiens = organism: Homo sapiens; test: In vitro metabolic stability of compound after 30 min incubation in the presence of human liver microsomes; format: functional
[4] = target: T2, D(4) dopamine receptor (Homo sapiens) (UniProt P21917); test: Inhibition of binding towards dopamine 4 receptor at 100 nM concentration
T2 sequence (whole entry): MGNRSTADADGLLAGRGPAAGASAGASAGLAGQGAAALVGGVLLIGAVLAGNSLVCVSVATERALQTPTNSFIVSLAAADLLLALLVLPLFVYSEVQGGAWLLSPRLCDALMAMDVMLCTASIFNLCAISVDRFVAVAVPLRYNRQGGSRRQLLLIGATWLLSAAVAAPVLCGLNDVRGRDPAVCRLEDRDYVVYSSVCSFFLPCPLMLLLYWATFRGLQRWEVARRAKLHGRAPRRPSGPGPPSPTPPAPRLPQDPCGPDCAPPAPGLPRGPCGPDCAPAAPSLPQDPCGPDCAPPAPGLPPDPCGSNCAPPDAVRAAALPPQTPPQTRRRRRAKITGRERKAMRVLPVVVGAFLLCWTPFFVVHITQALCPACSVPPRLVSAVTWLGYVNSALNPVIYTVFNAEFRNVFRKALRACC

[5] = target: D(2) dopamine receptor (Homo sapiens) (UniProt P14416); test: Inhibition of binding towards dopamine 2 receptor at 100 nM concentration
Chain of D(2) dopamine receptor (Homo sapiens) (P14416 whole entry): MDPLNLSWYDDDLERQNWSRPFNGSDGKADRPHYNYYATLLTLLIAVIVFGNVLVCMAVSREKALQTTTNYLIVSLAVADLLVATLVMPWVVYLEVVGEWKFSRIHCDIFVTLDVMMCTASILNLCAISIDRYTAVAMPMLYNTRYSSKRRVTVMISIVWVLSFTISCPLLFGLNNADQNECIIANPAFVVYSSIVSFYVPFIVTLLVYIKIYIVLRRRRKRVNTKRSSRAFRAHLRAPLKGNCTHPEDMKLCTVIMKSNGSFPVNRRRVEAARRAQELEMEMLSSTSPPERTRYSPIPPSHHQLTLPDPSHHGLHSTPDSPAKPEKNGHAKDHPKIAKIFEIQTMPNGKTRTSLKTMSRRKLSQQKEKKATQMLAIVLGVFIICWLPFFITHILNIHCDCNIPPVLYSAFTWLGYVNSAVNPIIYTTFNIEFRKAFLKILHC

[6] = target: 5-hydroxytryptamine receptor 1B (Homo sapiens) (UniProt P28222); test: Inhibition of binding towards 5-hydroxytryptamine 1B receptor at 100 nM concentration
Chain of 5-hydroxytryptamine receptor 1B (Homo sapiens) (P28222 whole entry): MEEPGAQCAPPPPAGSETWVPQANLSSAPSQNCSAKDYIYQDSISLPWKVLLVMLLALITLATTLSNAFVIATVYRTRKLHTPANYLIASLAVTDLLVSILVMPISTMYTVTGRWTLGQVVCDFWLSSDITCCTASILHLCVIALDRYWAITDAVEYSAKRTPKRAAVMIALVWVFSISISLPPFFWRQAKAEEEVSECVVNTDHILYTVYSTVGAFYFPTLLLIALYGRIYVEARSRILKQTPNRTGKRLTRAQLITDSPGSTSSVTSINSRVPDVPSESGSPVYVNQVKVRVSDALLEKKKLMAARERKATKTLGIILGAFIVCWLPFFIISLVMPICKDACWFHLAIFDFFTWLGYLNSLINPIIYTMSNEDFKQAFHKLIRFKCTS

[7] = Compound distribution in rat tissues was determined; format: ADME, organism-based; conditions: in vivo
[8] = target: Muscarinic acetylcholine receptors; M1 & M2 (Homo sapiens) (UniProt P11229+P08172); test: Inhibition of binding towards muscarinic (M1+M2) receptor at 100 nM concentration; format: protein assay
[9] = Cmax in rat; format: ADME, organism-based; conditions: in vivo
Rattus norvegicus [10] = test: Area under curve was determined after peroral administration in rat; format: ADME, organism-based; conditions: in vivo, po
[11] = target: T1, 5-hydroxytryptamine receptor 1D; test: Inhibition of binding towards 5-hydroxytryptamine 1D receptor at 100 nM concentration
[12] = Half period in rat after intravenous administration; format: ADME, organism-based; conditions: in vivo
[13] = target: T1, 5-hydroxytryptamine receptor 1D; test: Ability to inhibit forskolin-stimulated adenylate cyclase activity in Chinese hamster ovary (CHO) stable cell lines expressing human 5-hydroxytryptamine 1D receptor; format: functional
[14] = target: D(3) dopamine receptor (Homo sapiens) (UniProt P35462); test: Inhibition of binding towards dopamine 3 receptor at 100 nM concentration
Chain of D(3) dopamine receptor (Homo sapiens) (P35462 whole entry): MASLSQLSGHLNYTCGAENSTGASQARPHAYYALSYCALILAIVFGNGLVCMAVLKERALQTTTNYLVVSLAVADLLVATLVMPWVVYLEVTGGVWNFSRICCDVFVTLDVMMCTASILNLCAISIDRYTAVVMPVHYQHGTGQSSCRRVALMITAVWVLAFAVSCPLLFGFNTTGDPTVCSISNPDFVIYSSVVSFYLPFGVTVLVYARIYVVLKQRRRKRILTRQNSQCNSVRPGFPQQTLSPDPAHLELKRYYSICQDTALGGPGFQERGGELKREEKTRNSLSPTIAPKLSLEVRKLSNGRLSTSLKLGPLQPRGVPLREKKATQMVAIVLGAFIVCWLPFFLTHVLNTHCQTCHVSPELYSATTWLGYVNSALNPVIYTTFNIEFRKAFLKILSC

[15] = target: D(1B) dopamine receptor (Homo sapiens) (UniProt P21918); test: Inhibition of binding towards dopamine 5 receptor at 100 nM concentration
Chain of D(1B) dopamine receptor (Homo sapiens) (P21918 whole entry): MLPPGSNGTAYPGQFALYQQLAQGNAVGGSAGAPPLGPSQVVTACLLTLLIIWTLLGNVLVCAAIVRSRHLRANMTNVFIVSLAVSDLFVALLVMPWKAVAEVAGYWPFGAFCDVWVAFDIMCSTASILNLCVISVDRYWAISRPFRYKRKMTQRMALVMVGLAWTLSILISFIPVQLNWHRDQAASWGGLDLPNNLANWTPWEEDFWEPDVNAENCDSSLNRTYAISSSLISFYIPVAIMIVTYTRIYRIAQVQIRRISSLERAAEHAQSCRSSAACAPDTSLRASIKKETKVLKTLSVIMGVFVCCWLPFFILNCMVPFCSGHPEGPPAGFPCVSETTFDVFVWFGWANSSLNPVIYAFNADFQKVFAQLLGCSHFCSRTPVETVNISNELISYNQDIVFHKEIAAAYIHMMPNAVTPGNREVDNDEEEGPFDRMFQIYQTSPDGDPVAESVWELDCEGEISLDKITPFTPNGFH

Rattus norvegicus [16] = organism: Rattus norvegicus; test: In vitro metabolic stability of compound after 30 min incubation in the presence of rat liver microsomes; format: functional
[17] = Plasma clearance was determined in rat; format: ADME, organism-based
[18] = target: T3, 5-hydroxytryptamine receptor 2C (Homo sapiens) (UniProt P28335); test: Inhibition of binding towards 5-hydroxytryptamine 2C receptor at 100 nM concentration
T3 sequence (whole entry): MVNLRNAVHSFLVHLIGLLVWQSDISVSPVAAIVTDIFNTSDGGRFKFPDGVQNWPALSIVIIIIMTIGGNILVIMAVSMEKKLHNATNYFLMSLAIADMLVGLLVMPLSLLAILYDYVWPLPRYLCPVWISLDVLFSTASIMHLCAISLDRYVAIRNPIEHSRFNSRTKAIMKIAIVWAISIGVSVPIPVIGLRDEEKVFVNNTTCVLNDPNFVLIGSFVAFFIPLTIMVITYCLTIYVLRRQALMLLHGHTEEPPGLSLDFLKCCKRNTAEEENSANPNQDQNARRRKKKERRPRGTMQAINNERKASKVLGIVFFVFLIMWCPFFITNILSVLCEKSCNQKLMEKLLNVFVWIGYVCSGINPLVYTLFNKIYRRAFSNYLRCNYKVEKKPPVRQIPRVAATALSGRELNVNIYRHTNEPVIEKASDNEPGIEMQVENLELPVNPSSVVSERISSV

[19] = target: 5-hydroxytryptamine receptor 2A (Homo sapiens) (UniProt P28223); test: Inhibition of binding towards 5-hydroxytryptamine 2A receptor at 100 nM concentration
Chain of 5-hydroxytryptamine receptor 2A (Homo sapiens) (P28223 whole entry): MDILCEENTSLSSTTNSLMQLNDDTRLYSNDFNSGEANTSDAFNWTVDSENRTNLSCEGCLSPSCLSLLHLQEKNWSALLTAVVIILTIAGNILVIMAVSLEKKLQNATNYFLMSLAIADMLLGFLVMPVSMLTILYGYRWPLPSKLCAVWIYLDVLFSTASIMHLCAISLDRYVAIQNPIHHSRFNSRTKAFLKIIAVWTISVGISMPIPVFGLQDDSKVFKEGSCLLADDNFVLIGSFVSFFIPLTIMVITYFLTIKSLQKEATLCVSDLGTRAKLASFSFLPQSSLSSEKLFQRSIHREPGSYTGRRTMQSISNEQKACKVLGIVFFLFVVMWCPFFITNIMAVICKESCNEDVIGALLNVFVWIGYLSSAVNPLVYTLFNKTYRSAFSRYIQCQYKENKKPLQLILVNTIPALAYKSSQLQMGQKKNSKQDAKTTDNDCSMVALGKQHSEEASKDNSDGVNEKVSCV

[20] = Oral bioavailability in rat; format: ADME, organism-based; conditions: in vivo
[21] = target: 5-hydroxytryptamine receptor 7 (Homo sapiens) (UniProt P34969); test: Inhibition of binding towards 5-hydroxytryptamine 7 receptor at 100 nM concentration
Chain of 5-hydroxytryptamine receptor 7 (Homo sapiens) (P34969 whole entry): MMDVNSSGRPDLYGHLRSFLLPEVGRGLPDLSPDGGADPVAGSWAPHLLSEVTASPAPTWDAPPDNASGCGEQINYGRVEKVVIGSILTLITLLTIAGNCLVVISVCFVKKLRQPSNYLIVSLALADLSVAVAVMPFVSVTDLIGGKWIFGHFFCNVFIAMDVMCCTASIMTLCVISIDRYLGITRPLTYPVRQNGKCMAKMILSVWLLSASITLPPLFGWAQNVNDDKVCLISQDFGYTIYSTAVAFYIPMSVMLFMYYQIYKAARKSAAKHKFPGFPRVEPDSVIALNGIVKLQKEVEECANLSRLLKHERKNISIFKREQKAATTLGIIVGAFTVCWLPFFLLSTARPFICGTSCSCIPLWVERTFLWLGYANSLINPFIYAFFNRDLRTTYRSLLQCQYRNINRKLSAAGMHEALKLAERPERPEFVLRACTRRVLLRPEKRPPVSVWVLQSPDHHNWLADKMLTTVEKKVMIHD

[22] = target: T4, 5-hydroxytryptamine receptor 1A (Homo sapiens) (UniProt P08908); test: Inhibition of binding towards 5-hydroxytryptamine 1A receptor at 100 nM concentration
T4 sequence (whole entry): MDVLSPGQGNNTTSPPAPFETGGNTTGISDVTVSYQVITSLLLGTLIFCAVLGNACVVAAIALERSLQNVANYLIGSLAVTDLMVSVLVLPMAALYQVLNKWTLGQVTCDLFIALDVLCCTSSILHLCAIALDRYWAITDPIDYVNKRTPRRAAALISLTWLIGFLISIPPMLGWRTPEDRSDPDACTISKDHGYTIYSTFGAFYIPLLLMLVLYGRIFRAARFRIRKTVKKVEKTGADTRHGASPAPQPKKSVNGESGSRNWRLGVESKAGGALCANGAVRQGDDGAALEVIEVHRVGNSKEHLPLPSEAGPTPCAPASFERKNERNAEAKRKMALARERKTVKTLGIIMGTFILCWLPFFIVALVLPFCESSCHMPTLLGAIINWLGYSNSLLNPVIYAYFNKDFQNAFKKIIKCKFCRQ

[23] = target: D(1A) dopamine receptor (Homo sapiens) (UniProt P21728); test: Inhibition of binding towards dopamine 1 receptor at 100 nM concentration
Chain of D(1A) dopamine receptor (Homo sapiens) (P21728 whole entry): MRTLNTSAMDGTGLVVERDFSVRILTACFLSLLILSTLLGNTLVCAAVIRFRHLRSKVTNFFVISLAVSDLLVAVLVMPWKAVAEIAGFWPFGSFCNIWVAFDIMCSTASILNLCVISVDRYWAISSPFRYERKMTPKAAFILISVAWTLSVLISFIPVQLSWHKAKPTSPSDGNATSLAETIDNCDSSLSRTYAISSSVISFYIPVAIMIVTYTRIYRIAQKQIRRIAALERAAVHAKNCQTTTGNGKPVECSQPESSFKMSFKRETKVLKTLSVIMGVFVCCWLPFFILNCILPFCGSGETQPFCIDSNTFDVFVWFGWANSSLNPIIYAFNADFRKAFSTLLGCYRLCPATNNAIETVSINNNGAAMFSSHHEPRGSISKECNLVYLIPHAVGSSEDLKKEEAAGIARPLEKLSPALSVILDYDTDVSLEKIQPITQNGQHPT

[24] = target: Adrenergic receptor alpha-1 (Homo sapiens) (UniProt P35348+P25100+P35368); test: Inhibition of binding towards Alpha-1 adrenergic receptor at 100 nM concentration; format: protein assay
[25] = target: 5-hydroxytryptamine receptor 6 (Homo sapiens) (UniProt P50406); test: Inhibition of binding towards 5-hydroxytryptamine 6 receptor at 100 nM concentration
Chain of 5-hydroxytryptamine receptor 6 (Homo sapiens) (P50406 whole entry): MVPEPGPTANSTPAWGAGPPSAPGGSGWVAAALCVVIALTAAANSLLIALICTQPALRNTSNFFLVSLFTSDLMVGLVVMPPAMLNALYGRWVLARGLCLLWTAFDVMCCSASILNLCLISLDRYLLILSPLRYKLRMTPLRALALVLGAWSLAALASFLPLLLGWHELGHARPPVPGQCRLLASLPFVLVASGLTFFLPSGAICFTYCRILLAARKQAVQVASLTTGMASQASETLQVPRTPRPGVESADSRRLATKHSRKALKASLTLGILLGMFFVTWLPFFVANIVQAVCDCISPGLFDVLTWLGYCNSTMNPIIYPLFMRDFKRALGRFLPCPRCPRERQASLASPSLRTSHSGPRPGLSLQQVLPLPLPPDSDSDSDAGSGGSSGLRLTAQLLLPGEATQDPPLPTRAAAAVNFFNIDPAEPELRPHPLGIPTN

T1 sequence (P28221 whole entry): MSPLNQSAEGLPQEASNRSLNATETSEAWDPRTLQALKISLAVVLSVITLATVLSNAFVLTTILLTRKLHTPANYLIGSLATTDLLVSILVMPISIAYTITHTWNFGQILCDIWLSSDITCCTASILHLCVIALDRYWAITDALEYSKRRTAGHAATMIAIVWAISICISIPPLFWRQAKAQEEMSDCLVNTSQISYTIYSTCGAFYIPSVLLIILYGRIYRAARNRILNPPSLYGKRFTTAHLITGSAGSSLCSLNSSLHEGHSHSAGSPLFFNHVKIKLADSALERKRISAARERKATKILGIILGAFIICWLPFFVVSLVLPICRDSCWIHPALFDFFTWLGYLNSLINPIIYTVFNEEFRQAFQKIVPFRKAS

For `CNC(=O)c1ccc2c(c1)CCO[C@H]2CCN1CCN(c2ccc(C(N)=O)cc2)CC1`, the Ki [1] was 4.6 nM.
For `CN(C)CCn1ccc2ccc(-c3ccc(C(F)(F)F)cc3)cc21`, the inhibition [2] was 86%.
With `CN(C)CCn1ccc2ccc(C3=CCOCC3)cc21` the Ki [1] was 32 nM and the Selectivity [3] was 28.
With `CN(C)CCn1ccc2ccc(C3CCOCC3)cc21` the Ki [1] was 3.7 nM.
`CN(C)CCn1ccc2ccc(N3CCOCC3)cc21` showed an inhibition [2] of 85%.
`CN(C)CCn1ccc2ccc(N3CCSCC3)cc21` showed an inhibition [2] of 88%.
With `CN(C)CCn1ccc2ccc(-c3cccnc3)cc21` the Ki [1] was 1.4 nM, the Selectivity [3] was 17 and the inhibition [2] was 98%.
`OC[C@H](NC1CCN(CCCc2c[nH]c3ccc(-n4cnnc4)cc23)CC1)c1ccc(F)cc1` showed a Ki [1] of 0.9 nM.
For `CN(C)CCn1ccc2ccc(C3CCN(C)CC3)cc21`, the inhibition [2] was 74%.
`CN(C)CCn1ccc2ccc(-c3ccsc3)cc21` showed a Ki [1] of 7.3 nM, a Selectivity [3] of 22 and an inhibition [2] of 99%.
Work on `CN(C)CCn1ccc2ccc(C3(O)CCN(C)CC3)cc21` yielded an inhibition [2] of 44%.
Compound `CN(C)CCn1ccc2ccc(C3=CCN(C)CC3)cc21` has an inhibition [2] of 84%.
With `CN(C)CCn1ccc2ccc(C3=CCSCC3)cc21` the Ki [1] was 22 nM, the Selectivity [3] was 7.4 and the inhibition [2] was 95%.
With `CN(C)CCn1ccc2ccc(C3CCSCC3)cc21` the Ki [1] was 5.6 nM, the Selectivity [3] was 48 and the inhibition [2] was 99%.
In the case of `CN(C)CCn1ccc2ccc(-c3ccc4ccccc4c3)cc21`, the Ki [1] is reported as 57 nM, the Selectivity [3] is reported as 5.5 and the inhibition [2] is reported as 79%.
In the case of `CN(C)CCn1ccc2ccc(C3(O)CCSCC3)cc21`, the Remaining (Homo sapiens) is reported as 70%, the inhibition [4] is reported as 2% and the inhibition [5] is reported as 0%. For the same compound, the inhibition [6] was 46%, the Vd [7] was 8.61 L/kg and the inhibition [8] was 0%. It also gave a Ki [1] of 2 nM, a Cmax [9] of 538 ng/mL and an AUC (Rattus norvegicus [10]) of 21265 ng·mL/kg. It also gave an inhibition [11] of 96%, a half-life [12] of 1.5 h and an EC50 [13] of 0.3 nM. It also gave an inhibition [14] of 0%, a Selectivity [3] of 57 and an inhibition [15] of 1%. It also gave an inhibition [2] of 99%, a Remaining (Rattus norvegicus [16]) of 79% and a clearance [17] of 74 mL/min/kg. For the same compound, the inhibition [18] was 4%, the inhibition [19] was 0% and the bioavailability [20] was 51.1%. The inhibition [21] was 5%, the inhibition [22] was 27% and the inhibition [23] was 0%. The inhibition [24] was 1% and the inhibition [25] was 0%.
With `CN(C)CCn1ccc2ccc(C3(O)CCOCC3)cc21` the Ki [1] was 3.4 nM and the Selectivity [3] was 48.
